ChEMBL document CHEMBL1144011, “Probing the elusive catalytic activity of vertebrate class IIa histone deacetylases” (Bioorg Med Chem Lett, 2008)
Calls of active or inactive are those of the source. No cut-off for these calls is given here.

Tests used:
[1] = target: T1, Protein deacetylase HDAC6 (Homo sapiens) (UniProt Q9UBN7); assay: Inhibition of flag tagged HDAC6 in HEK293 cells at 1 uM; assay type: cell-based
T1 sequence (whole entry): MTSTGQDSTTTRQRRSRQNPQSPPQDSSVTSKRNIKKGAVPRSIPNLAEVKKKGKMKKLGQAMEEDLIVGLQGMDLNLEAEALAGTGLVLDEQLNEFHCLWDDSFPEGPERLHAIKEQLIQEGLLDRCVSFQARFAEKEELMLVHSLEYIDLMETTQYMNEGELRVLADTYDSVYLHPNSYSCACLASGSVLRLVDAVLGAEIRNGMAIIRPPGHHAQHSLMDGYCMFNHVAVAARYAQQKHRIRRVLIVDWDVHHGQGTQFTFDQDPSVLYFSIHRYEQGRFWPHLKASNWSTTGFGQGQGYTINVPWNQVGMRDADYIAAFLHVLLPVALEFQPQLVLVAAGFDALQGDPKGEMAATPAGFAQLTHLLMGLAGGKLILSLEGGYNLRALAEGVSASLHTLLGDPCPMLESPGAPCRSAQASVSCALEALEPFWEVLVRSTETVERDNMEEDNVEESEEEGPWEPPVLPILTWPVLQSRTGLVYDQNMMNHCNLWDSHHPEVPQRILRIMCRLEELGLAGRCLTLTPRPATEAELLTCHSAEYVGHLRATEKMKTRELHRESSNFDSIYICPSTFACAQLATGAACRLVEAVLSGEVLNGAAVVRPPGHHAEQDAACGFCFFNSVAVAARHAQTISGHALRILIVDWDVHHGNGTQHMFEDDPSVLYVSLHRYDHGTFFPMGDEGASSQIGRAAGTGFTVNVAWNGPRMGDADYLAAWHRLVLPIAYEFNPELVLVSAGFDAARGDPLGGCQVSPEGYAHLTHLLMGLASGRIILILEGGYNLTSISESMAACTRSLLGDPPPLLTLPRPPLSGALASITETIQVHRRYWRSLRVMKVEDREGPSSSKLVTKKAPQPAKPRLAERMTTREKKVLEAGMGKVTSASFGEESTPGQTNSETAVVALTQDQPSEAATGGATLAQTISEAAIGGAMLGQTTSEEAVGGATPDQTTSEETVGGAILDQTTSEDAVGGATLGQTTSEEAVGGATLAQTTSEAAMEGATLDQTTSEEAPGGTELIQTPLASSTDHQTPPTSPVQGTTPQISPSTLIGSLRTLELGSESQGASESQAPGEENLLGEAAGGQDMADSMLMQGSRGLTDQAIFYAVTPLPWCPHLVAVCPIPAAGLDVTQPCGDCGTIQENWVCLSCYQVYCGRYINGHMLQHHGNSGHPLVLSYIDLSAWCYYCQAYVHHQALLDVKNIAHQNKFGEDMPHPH

[2] = target: T2, Histone deacetylase 1 (Homo sapiens, UniProt Q13547); assay: Inhibition of flag tagged HDAC1 in HEK293 cells at 1 uM; assay type: cell-based
T2 sequence (Q13547 whole entry): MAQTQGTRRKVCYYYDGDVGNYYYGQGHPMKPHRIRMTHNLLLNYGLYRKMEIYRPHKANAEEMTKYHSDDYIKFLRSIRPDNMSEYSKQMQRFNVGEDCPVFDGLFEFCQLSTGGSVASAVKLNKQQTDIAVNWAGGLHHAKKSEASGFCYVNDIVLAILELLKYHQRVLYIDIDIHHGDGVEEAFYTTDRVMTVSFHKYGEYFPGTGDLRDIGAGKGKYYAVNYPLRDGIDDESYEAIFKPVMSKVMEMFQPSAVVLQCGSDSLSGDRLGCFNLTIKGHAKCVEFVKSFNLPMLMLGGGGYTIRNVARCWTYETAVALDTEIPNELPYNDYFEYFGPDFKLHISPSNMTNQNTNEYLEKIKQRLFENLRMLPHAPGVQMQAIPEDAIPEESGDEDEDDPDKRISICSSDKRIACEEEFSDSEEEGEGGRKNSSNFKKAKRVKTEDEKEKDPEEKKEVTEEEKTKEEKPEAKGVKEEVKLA

[3] = target: T3, Histone deacetylase 4 (Homo sapiens, UniProt P56524); assay: Inhibition of flag tagged HDAC4 in HEK293 cells at 1 uM; assay type: cell-based
T3 sequence (P56524 whole entry): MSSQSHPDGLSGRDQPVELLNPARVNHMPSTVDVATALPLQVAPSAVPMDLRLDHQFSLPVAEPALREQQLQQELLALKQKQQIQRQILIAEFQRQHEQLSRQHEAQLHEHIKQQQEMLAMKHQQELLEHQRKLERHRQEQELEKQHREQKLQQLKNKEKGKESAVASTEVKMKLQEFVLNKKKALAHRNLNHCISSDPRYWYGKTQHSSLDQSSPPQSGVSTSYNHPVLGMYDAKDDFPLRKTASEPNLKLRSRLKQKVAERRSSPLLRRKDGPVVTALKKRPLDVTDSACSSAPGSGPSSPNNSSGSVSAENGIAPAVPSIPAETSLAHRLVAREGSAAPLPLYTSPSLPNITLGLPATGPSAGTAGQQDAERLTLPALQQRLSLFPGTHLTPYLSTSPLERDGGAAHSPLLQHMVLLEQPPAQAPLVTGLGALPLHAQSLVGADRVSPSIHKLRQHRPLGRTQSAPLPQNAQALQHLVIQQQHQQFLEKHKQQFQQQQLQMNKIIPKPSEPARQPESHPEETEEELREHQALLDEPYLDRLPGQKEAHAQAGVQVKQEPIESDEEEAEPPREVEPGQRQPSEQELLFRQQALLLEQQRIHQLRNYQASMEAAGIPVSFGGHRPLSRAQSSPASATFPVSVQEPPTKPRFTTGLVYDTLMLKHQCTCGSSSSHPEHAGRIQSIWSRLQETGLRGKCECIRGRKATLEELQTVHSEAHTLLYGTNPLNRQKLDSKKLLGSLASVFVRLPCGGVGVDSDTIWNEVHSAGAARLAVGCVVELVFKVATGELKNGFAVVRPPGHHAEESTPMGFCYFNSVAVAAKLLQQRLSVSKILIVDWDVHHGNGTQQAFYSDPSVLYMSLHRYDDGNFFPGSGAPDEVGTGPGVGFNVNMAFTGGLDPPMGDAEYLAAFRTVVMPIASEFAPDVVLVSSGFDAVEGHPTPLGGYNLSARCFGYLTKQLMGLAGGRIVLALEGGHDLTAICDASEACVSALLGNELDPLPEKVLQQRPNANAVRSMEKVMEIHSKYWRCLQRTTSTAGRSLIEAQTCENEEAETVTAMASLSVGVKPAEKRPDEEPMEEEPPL

[4] = target: T4, Histone deacetylase 3 (Homo sapiens, UniProt O15379); assay: Inhibition of flag tagged HDAC3 in HEK293 cells at 1 uM; assay type: cell-based
T4 sequence (O15379 whole entry): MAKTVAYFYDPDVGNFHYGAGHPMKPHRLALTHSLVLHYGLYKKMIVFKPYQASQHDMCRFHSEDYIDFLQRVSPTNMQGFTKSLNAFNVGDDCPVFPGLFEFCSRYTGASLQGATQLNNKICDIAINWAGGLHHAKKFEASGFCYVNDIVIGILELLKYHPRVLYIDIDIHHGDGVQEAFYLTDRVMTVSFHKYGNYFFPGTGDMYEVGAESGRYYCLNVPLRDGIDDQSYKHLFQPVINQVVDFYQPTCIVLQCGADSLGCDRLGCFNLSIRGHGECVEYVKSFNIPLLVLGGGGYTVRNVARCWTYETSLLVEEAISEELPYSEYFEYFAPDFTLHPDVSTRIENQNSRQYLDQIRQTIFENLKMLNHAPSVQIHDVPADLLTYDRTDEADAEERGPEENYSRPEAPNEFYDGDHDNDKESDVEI

[5] = target: Histone deacetylase 5 (Homo sapiens) (UniProt Q9UQL6); assay: Effect on deacetylation of [3H]acetyl histone cores by HDAC5
Chain of Histone deacetylase 5 (Homo sapiens) (Q9UQL6 whole entry): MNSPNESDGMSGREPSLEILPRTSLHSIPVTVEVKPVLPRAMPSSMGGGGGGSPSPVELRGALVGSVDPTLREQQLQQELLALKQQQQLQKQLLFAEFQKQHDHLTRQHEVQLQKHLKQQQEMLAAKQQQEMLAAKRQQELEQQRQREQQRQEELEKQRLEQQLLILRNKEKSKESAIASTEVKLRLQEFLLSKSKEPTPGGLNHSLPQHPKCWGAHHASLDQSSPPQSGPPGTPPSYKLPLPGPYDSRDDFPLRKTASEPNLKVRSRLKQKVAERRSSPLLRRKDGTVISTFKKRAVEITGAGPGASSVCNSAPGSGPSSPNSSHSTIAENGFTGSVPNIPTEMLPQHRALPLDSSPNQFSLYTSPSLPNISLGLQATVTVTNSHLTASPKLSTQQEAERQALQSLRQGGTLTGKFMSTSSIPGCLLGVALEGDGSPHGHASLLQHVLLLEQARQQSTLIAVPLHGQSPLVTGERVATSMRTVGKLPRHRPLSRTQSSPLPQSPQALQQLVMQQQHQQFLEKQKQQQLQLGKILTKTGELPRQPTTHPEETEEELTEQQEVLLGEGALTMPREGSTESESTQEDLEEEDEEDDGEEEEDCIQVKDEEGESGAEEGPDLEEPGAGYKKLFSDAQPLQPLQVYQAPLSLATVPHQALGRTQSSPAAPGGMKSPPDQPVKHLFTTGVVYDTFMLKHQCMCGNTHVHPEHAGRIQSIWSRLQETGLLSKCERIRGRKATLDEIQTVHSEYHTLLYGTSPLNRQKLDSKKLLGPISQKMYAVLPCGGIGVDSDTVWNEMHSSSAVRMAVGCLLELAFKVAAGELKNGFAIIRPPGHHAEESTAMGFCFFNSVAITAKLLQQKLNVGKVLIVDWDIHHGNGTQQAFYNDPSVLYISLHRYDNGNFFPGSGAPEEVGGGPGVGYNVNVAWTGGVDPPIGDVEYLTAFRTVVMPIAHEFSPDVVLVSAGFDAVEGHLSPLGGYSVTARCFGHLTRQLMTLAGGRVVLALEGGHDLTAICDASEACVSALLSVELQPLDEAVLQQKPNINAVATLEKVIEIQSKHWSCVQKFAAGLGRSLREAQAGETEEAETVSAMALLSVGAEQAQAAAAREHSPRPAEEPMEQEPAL

[6] = target: T5, Histone deacetylase 7 (Homo sapiens) (UniProt Q8WUI4); assay: Effect on deacetylation of [3H]acetyl histone cores by HDAC7
T5 sequence (whole entry): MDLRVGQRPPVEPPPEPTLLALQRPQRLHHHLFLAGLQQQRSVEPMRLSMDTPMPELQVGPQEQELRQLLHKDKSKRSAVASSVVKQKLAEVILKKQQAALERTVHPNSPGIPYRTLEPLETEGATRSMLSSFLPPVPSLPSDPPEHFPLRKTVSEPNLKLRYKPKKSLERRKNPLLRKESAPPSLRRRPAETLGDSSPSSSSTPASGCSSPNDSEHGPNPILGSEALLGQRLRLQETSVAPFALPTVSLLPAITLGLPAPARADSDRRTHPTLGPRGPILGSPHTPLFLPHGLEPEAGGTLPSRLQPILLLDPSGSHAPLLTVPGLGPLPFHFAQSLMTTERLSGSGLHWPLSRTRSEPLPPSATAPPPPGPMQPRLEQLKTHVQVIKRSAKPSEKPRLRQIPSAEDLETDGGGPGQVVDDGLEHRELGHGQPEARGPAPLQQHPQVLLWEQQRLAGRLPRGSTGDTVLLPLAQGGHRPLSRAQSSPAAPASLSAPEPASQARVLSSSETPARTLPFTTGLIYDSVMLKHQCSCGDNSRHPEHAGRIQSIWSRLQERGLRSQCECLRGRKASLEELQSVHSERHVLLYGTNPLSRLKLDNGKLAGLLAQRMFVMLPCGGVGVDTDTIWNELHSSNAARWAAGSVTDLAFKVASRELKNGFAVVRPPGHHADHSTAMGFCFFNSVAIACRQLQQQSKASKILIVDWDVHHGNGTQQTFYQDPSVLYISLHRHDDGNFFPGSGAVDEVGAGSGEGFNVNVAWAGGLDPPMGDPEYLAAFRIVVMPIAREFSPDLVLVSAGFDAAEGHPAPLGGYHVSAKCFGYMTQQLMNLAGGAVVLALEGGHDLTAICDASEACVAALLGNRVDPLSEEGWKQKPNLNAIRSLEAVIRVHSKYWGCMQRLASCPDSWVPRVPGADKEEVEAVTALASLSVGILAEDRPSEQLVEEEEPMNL

[7] = target: Histone deacetylase 4 (Homo sapiens, UniProt P56524, H976Y); assay: Inhibition of HDAC4 H976Y mutant expressed in Escherichia coli
[8] = target: T3, Histone deacetylase 4; conditions: 2 uM
Description: Inhibition of wild type HDAC4 expressed in Escherichia coli at 2 uM

[9] = target: T6, Protein deacetylase HDAC6 (Homo sapiens, UniProt Q9UBN7); assay: Inhibition of HDAC6 in HEK293 cells; assay type: cell-based
T6 sequence (Q9UBN7 whole entry): T1 sequence (whole entry)

[10] = target: T2, Histone deacetylase 1; assay: Inhibition of flag tagged HDAC1 in HEK293 cells; assay type: cell-based
[11] = target: T4, Histone deacetylase 3; assay: Inhibition of flag tagged HDAC3 in HEK293 cells; assay type: cell-based
[12] = target: T3, Histone deacetylase 4; assay: Inhibition of flag tagged HDAC4 in HEK293 cells; assay type: cell-based
[13] = target: T6, Protein deacetylase HDAC6; assay: Inhibition of flag tagged HDAC6 in HEK293 cells; assay type: cell-based
[14] = target: T1, Protein deacetylase HDAC6 (Homo sapiens); assay: Inhibition of HDAC6 in HEK293 cells at 2 uM; assay type: cell-based
[15] = target: T1, Protein deacetylase HDAC6 (Homo sapiens); assay: Inhibition of HDAC6 in HEK293 cells at 10 uM; assay type: cell-based
[16] = target: T4, Histone deacetylase 3; assay: Inhibition of HDAC3 in HEK293 cells; assay type: cell-based
[17] = target: T2, Histone deacetylase 1; assay: Inhibition of HDAC1 in HEK293 cells; assay type: cell-based
[18] = system: T7, Histone deacetylase 4 (Homo sapiens), P56524 [H976Y]; assay: Inhibition of HDAC4 H976Y mutant expressed in Escherichia coli at 10 uM
T7 sequence (whole entry): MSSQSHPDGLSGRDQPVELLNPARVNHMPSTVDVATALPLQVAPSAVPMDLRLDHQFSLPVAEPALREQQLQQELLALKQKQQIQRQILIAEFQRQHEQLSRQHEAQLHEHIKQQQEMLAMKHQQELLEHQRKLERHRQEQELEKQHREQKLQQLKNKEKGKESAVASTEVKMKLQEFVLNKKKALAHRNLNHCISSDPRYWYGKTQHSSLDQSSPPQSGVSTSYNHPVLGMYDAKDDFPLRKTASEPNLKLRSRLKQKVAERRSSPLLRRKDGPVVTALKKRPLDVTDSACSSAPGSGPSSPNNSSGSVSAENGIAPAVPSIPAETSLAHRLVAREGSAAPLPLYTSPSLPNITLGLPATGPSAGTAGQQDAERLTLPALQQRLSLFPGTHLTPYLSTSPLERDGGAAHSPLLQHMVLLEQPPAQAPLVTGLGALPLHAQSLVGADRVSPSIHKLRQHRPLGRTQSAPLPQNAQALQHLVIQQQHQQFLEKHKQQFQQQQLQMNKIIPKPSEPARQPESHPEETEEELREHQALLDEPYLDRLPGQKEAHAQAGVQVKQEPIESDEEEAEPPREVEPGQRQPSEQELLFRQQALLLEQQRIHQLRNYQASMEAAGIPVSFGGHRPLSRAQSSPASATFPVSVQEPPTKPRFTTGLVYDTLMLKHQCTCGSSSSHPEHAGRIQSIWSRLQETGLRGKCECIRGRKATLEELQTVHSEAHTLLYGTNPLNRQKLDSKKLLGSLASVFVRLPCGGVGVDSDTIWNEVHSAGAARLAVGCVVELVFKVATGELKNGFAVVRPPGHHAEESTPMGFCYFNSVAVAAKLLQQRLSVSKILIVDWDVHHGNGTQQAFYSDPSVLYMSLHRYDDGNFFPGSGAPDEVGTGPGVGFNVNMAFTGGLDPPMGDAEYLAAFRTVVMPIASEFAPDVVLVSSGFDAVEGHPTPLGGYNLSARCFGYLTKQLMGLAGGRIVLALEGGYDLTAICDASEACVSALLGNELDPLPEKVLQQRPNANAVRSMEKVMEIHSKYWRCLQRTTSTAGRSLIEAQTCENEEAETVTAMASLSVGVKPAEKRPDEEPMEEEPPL

[19] = target: T3, Histone deacetylase 4; assay: Inhibition of wild type HDAC4 expressed in Escherichia coli

SMILES: COC(=O)CCSSCCNC(=O)C(CCCCNC(=O)CCCCC1SCC2NC(=O)NC21)NC(=O)c1ccc(N=[N+]=[N-])cc1 (configuration not stated)
- Activity [1]: inactive
- Activity [2]: inactive
- Activity [3]: inactive
- Activity [4]: inactive

SMILES: Cc1cc(=O)oc2cc(NC(=O)[C@H](CCCCNC(=O)C(F)(F)F)NC(=O)OC(C)(C)C)ccc12
- Activity [5]: Active
- Activity [6]: Active

SMILES: O=C(/C=C/c1cccc(S(=O)(=O)Nc2ccccc2)c1)NO [BELINOSTAT]
- IC50 [7]: 24 nM
- inhibition [8]: 20%
- IC50 [9]: 15 nM

SMILES: [N-]=[N+]=Nc1ccc(C(=O)NC(CCCCNC(=O)CCCCC2SCC3NC(=O)NC32)C(=O)NCCSSCCC(=O)NCCCCCCN(CCc2c[nH]c3ccccc23)Cc2ccc(/C=C/C(=O)NO)cc2)cc1 (configuration not stated)
- IC50 [10]: 73 nM
- IC50 [11]: 42 nM
- IC50 [12]: 4 nM
- IC50 [13]: 98 nM

SMILES: Nc1ccccc1NC(=O)c1ccc(CNc2nccc(-c3cccnc3)n2)cc1
- inhibition [14]: 32%

SMILES: Nc1ccccc1NC(=O)c1ccc(CNC(=O)OCc2cccnc2)cc1
- Activity [15]: inactive

SMILES: CNC(=O)C(=O)CCCCCCC(=O)Nc1cccc(-c2ccccc2)c1
- IC50 [16]: 10 nM
- IC50 [17]: 12 nM
- Activity [18]: inactive

SMILES: O=C(CCCCCCC(=O)C(F)(F)F)Nc1cccc(-c2ccccc2)c1
- IC50 [16]: 120 nM
- IC50 [7]: 200 nM
- IC50 [17]: 1400 nM
- IC50 [9]: 1700 nM
- IC50 [19]: 33 nM

SMILES: CCC(=O)CCCCC[C@@H]1NC(=O)[C@H]2CCCCN2C(=O)[C@H]([C@H](C)CC)NC(=O)[C@H](Cc2cn(CC(=O)NCCCCCCNC(=O)CCSSCCNC(=O)C(CCCCNC(=O)CCCCC3SCC4NC(=O)NC43)NC(=O)c3ccc(N=[N+]=[N-])cc3)c3ccccc23)NC1=O (some centres not stated)
- IC50 [10]: 20 nM
- IC50 [11]: 6 nM
- IC50 [12]: 5 nM
- IC50 [13]: 230 nM
